In ChEMBL document CHEMBL1126144, “Synthesis and evaluation of radioiodinated 2-(2(RS)-aminopropyl)-5- iodothiophenes as brain imaging agents” (J Med Chem, 1992):

Tests used:
Rattus norvegicus [1] = assay: Distribution of the radioiodinated compound expressed as percent dose per gram, in brain of unfasted rats after 30 mins of intravenous administration (11.5 uCi/animal); value ranges from 0.16-1.76 % dose/g; assay type: ADME, organism-based; conditions: in vivo, 0.5 h
Rattus norvegicus [2] = assay: Distribution of the radioiodinated compound expressed as percent dose per gram, in kidney of unfasted rats after 60 mins of intravenous administration (11.5 uCi/animal); value ranges from 0.74-0.85 % dose/g; assay type: ADME, organism-based; conditions: in vivo, 1 h
Rattus norvegicus [3] = assay: Distribution of the radioiodinated compound expressed as percent dose per gram, in blood of unfasted rats after 60 mins of intravenous administration (11.5 uCi/animal); value ranges from % dose/g; assay type: ADME, organism-based; conditions: in vivo, 1 h
Rattus norvegicus [4] = organism: Rattus norvegicus; assay: Specific activity of the radioiodinated compound was determined in rats; assay type: functional
Rattus norvegicus [5] = assay: Distribution of the radioiodinated compound expressed as percent dose per organ, in thyroid of unfasted rats after 5 mins of intravenous administration (11.5 uCi/animal); value ranges from 0.08-0.17 % dose/g; assay type: ADME, organism-based, Thyroid gland; conditions: in vivo
Rattus norvegicus [6] = assay: Distribution of the radioiodinated compound expressed as percent dose per gram, in lungs of unfasted rats after 5 mins of intravenous administration (11.5 uCi/animal); value ranges from 5.92-8.51% dose/g; assay type: ADME, organism-based, Lung; conditions: in vivo
Rattus norvegicus [7] = assay: Distribution of the radioiodinated compound expressed as percent dose per organ, in thyroid of unfasted rats after 30 mins of intravenous administration (11.5 uCi/animal); value ranges from 0.05-0.38 % dose/g; assay type: ADME, organism-based, Thyroid gland; conditions: in vivo, 0.5 h
Rattus norvegicus [8] = assay: Distribution of the radioiodinated compound expressed as percent dose per gram, in liver of unfasted rats after 5 mins of intravenous administration (11.5 uCi/animal); value ranges from 1.64-2.38 % dose/g; assay type: ADME, organism-based; conditions: in vivo
Rattus norvegicus [9] = assay: Distribution of the radioiodinated compound expressed as percent dose per gram, in blood of unfasted rats after 30 mins of intravenous administration (11.5 uCi/animal); value ranges from 0.06-0.63 % dose/g; assay type: ADME, organism-based; conditions: in vivo, 0.5 h
Rattus norvegicus [10] = assay: Distribution of the radioiodinated compound expressed as percent dose per gram, in heart of unfasted rats after 5 mins of intravenous administration (11.5 uCi/animal); value ranges from 0.85-1.13 % dose/g; assay type: ADME, organism-based; conditions: in vivo
Rattus norvegicus [11] = assay: Distribution of the radioiodinated compound expressed as percent dose per gram, in blood of unfasted rats after 5 mins of intravenous administration (11.5 uCi/animal); value ranges from 0.28-0.37% dose/g; assay type: ADME, organism-based; conditions: in vivo
Rattus norvegicus [12] = assay: Distribution of the radioiodinated compound expressed as percent dose per gram, in lungs of unfasted rats after 30 mins of intravenous administration (11.5 uCi/animal); value ranges from 0.51-3.71 % dose/g; assay type: ADME, organism-based, Lung; conditions: in vivo, 0.5 h
Rattus norvegicus [13] = assay: Distribution of the radioiodinated compound expressed as percent dose per gram, in brain of unfasted rats after 5 mins of intravenous administration (11.5 uCi/animal); value ranges from 2.57-3.59 % dose/g; assay type: ADME, organism-based; conditions: in vivo
Rattus norvegicus [14] = assay: Distribution of the radioiodinated compound expressed as percent dose per organ, in thyroid of unfasted rats after 60 mins of intravenous administration (11.5 uCi/animal); value ranges from 0.99-1.40 % dose/g; assay type: ADME, organism-based, Thyroid gland; conditions: in vivo, 1 h
Rattus norvegicus [15] = assay: Distribution of the radioiodinated compound expressed as percent dose per gram, in thyroid of unfasted rats after 5 mins of intravenous administration (11.5 uCi/animal); value ranges from 7.87-16.51 % dose/g; assay type: ADME, organism-based, Thyroid gland; conditions: in vivo
Rattus norvegicus [16] = assay: Distribution of the radioiodinated compound expressed as percent dose per gram, in thyroid of unfasted rats after 30 mins of intravenous administration (11.5 uCi/animal); value ranges from 5.03-36.88 % dose/g; assay type: ADME, organism-based, Thyroid gland; conditions: in vivo, 0.5 h
Rattus norvegicus [17] = assay: Distribution of the radioiodinated compound expressed as percent dose per gram, in liver of unfasted rats after 60 mins of intravenous administration (11.5 uCi/animal); value ranges from 0.61-0.81 % dose/g; assay type: ADME, organism-based; conditions: in vivo, 1 h
Rattus norvegicus [18] = assay: Distribution of the radioiodinated compound expressed as percent dose per gram, in liver of unfasted rats after 30 mins of intravenous administration (11.5 uCi/animal); value ranges from 0.08-0.90 % dose/g; assay type: ADME, organism-based; conditions: in vivo, 0.5 h
Rattus norvegicus [19] = assay: Distribution of the radioiodinated compound expressed as percent dose per gram, in heart of unfasted rats after 60 mins of intravenous administration (11.5 uCi/animal); value ranges from 0.33-0.42 % dose/g; assay type: ADME, organism-based; conditions: in vivo, 1 h
Rattus norvegicus [20] = assay: Distribution of the radioiodinated compound expressed as percent dose per gram, in lungs of unfasted rats after 60 mins of intravenous administration (11.5 uCi/animal); value ranges from 1.87-2.12 % dose/g; assay type: ADME, organism-based, Lung; conditions: in vivo, 1 h
Rattus norvegicus [21] = assay: Distribution of the radioiodinated compound expressed as percent dose per gram, in heart of unfasted rats after 30 mins of intravenous administration (11.5 uCi/animal); value ranges from 0.06-0.53 % dose/g; assay type: ADME, organism-based; conditions: in vivo, 0.5 h
Rattus norvegicus [22] = assay: Distribution of the radioiodinated compound expressed as percent dose per gram, in kidney of unfasted rats after 30 mins of intravenous administration (11.5 uCi/animal); value ranges from 0.15-1.43 % dose/g; assay type: ADME, organism-based; conditions: in vivo, 0.5 h
Rattus norvegicus [23] = assay: Distribution of the radioiodinated compound expressed as percent dose per gram, in thyroid of unfasted rats after 60 mins of intravenous administration (11.5 uCi/animal); value ranges from 31.90-39.98 % dose/g; assay type: ADME, organism-based, Thyroid gland; conditions: in vivo, 1 h
Rattus norvegicus [24] = assay: Distribution of the radioiodinated compound expressed as percent dose per gram, in brain of unfasted rats after 60 mins of intravenous administration (11.5 uCi/animal); value ranges from 0.81-1.08 % dose/g; assay type: ADME, organism-based; conditions: in vivo, 1 h
Rattus norvegicus [25] = assay: Distribution of the radioiodinated compound expressed as percent dose per gram, in kidney of unfasted rats after 5 mins of intravenous administration (11.5 uCi/animal); value ranges from 2.12-3.14 % dose/g; assay type: ADME, organism-based; conditions: in vivo

`CC(C)NC(C)Cc1ccc(I)s1` (racemic) was tested, and the Distribution (Rattus norvegicus [1]) was 1.37 % dose g-1, the Distribution (Rattus norvegicus [2]) was 0.79 % dose g-1 and the Distribution (Rattus norvegicus [3]) was 0.6 % dose g-1. The Activity (Rattus norvegicus [4]) was 40 mCi animal-1, the Distribution (Rattus norvegicus [5]) was 0.13 % dose organ-1 and the Distribution (Rattus norvegicus [6]) was 7.01 % dose g-1. It also gave a Distribution (Rattus norvegicus [7]) of 0.28 % dose organ-1, a Distribution (Rattus norvegicus [8]) of 2.06 % dose g-1 and a Distribution (Rattus norvegicus [9]) of 0.49 % dose g-1. The Distribution (Rattus norvegicus [10]) was 0.94 % dose g-1, the Distribution (Rattus norvegicus [11]) was 0.31 % dose g-1 and the Distribution (Rattus norvegicus [12]) was 2.76 % dose g-1. The Distribution (Rattus norvegicus [13]) was 3.18 % dose g-1, the Distribution (Rattus norvegicus [14]) was 1.24 % dose organ-1 and the Distribution (Rattus norvegicus [15]) was 12.51 % dose g-1. For the same molecule, the Distribution (Rattus norvegicus [16]) was 26.26 % dose g-1, the Distribution (Rattus norvegicus [17]) was 0.07 % dose g-1 and the Distribution (Rattus norvegicus [18]) was 0.71 % dose g-1. For the same molecule, the Distribution (Rattus norvegicus [19]) was 0.37 % dose g-1, the Distribution (Rattus norvegicus [20]) was 1.97 % dose g-1 and the Distribution (Rattus norvegicus [21]) was 0.42 % dose g-1. The Distribution (Rattus norvegicus [22]) was 1.04 % dose g-1, the Distribution (Rattus norvegicus [23]) was 36.45 % dose g-1 and the Distribution (Rattus norvegicus [24]) was 0.95 % dose g-1. It also gave a Distribution (Rattus norvegicus [25]) of 2.72 % dose g-1.
